Assay results reported in PMC8778681, “Crystal Structure, Solubility, and Pharmacokinetic Study on a Hesperetin Cocrystal with Piperine as Coformer” (Pharmaceutics, 2022).
Converted amounts (≈) assume the structure as drawn.

Legend:
[1] = Bioavailability / pharmacokinetics after oral gavage in rats; assay type: in vivo; details: Sprague-Dawley, 80 mg/kg, HES in rat plasma, equivalent to 80 mg HES/kg
Method: Eighteen Sprague–Dawley rats weighing 220–250 g were randomly divided into three groups (n = 6), fasted for 12 h but freely given water before the experiment. The HES, the physical mixture of HES and PIP, and the HES–PIP cocrystal were delivered by gavage at a dose equivalent to 80 mg of the HES/kg body weight of the animal as a suspension in water. Next, 500 µL blood was withdrawn and placed in a centrifuge tube with heparin from the eye sockets of rats at 0.25 h, 0.5 h, 1 h, 2 h, 4 h, 6 h, 8 h, 12 h, 24 h, and 48 h after oral administration. The plasma was separated by centrifugation (4000 rpm, 15 min) and saved at −80 °C until analysis. Next, 100 µL of plasma sample was added into 400 μL of methanol and vortexed for 5 min to fully precipitate the protein [44], then centrifuged at 10,000 rpm for 10 min. The supernatant was then transferred to another tube and evaporated to remove the solvent under a stream of nitrogen. The residual solid was then dissolved in methanol with vortex oscillation for 3 min, and the mixture was centrifuged at 10,000 rpm for 10 min. Finally, the supernatant was analyzed via HPLC method for HES content. PK parameters were obtained on the basis of a model-independent method using DAS 2 program.

[2] = Solubility experiment in simulated gastrointestinal fluid; assay type: physicochemical; details: thermodynamic from solid, 100 rpm
Method: The solubility of the HES–PIP cocrystal in simulated gastrointestinal fluid was measured in the present study following the method described in the literature but slightly modified. The samples were previously milled and sieved (75–150 μm) before examination to reduce the effect of the crystal’s size on its solubility behavior. A specific amount (containing 25 mg of HES) of the HES–PIP cocrystal was weighed and added into a centrifuge tube containing 5 mL dissolving medium, and the suspension was incubated at 37 ± 0.2 °C rotating at 100 rpm. Taking a tube at 0.25 h, 0.5 h, 1 h, 2 h, 4 h, 6 h, 8 h, 12 h, 24 h, and 48 h, the samples were centrifuged at 12,000 rpm for 5 min, and the supernatant was diluted with methanol and analyzed by HPLC. The cocrystal’s solubility at different times was compared with that of raw HES. […] The residual solid in each tube was also analyzed by PXRD.
The cocrystal’s supersaturation factor (SF) was calculated through the drug supersaturation–time curve following the method presented in a previous study, and the calculation formula is as follows:(1) SF=AUC0.25−48 h(Cocrystal)/AUC0.25−48 h(Hesperetin) where SF is the supersaturation factor, AUC0.25–48 h (Cocrystal) is the area under the curve of the cocrystal supersaturation–time profile, and AUC0.25–48 h (Hesperetin) is the area under the curve for a saturated solution.

With `COc1ccc([C@@H]2CC(=O)c3c(O)cc(O)cc3O2)cc1O` [HES, ((S)-2,3-dihydro-5,7-dihydroxy-2-(3-hydroxy-4 methoxy-phenyl)-4H-1-benzopyran-4-one)] the AUC(0-t) ([1]; n = 6) was 530 ng·h/mL, the Tmax ([1]; n = 6) was 0.5 h and the half-life ([1]; n = 6) was 3.01 h. For the same compound, the MRT last ([1]; n = 6, read-out: MRT(0–t)) was 5.86 h, the Cmax ([1]; suspension in water, n = 6) was 120 ng/mL and the solubility ([2]; fassgf or other biorelevant, simulated gastrointestinal fluid pH 6.8, 37 °C, HES–PIP maximum at 6 h) was 21.1 µg/mL (≈ 69.9 µM). It also gave a solubility ([2]; simulated gastric fluid, simulated gastrointestinal fluid pH 1.2, 37 °C, HES–PIP maximum at 8 h) of 23.1 µg/mL (≈ 76.5 µM).
